Among the data in ChEMBL document CHEMBL1806424, “The novel 3,4-dihydropyrimidin-2(1H)-one urea derivatives of N-aryl urea: synthesis, anti-inflammatory, antibacterial and antifungal activity evaluation” (2011) are MIC and inhibition values, retold here.

Assay [1] concerns Escherichia coli. Nature of the assay: Antibacterial activity against Escherichia coli. Format: functional.
Assay [2] relates to Candida albicans. Nature of the assay: Antifungal activity against Candida albicans. Format: functional.
Assay [3] has as its system Fusarium solani. Nature of the assay: Antifungal activity against Fusarium solani. Format: functional.
Assay [4] relates to Aspergillus niger. Nature of the assay: Antifungal activity against Aspergillus niger. Format: functional.
In assay [5] the test system is Salmonella typhimurium. Nature of the assay: Antibacterial activity against Salmonella Typhimurium. It counts as functional, Salmonella enterica subsp. enterica serovar Typhimurium. To be noted: Salmonella enterica.
Assay [6] deals with THP-1. Nature of the assay: Antiinflammatory activity in human THP1 cells assessed as inhibition of LPS-induced TNFalpha production at 10 uM treated 30 mins before LPS challenge measured after 24 hrs by ELISA. Format: functional.
Assay [7] deals with THP-1. Nature of the assay: Antiinflammatory activity in human THP1 cells assessed as inhibition of LPS-induced IL6 production at 10 uM treated 30 mins before LPS challenge measured after 24 hrs by ELISA. Format: functional. Background: In an ELISA, binding on a coated surface is turned into a signal by an enzyme label.
For assay [8], the system named is Staphylococcus aureus. Nature of the assay: Antibacterial activity against Staphylococcus aureus. It counts as functional.
The subject of assay [9] is Aspergillus flavus. Nature of the assay: Antifungal activity against Aspergillus flavus. Format: functional.
Assay [10] relates to Bacillus subtilis. Nature of the assay: Antibacterial activity against Bacillus subtilis. Format: functional.

Converted amounts (≈) assume the structure as drawn.

Usually MIC stands for the least concentration at which growth counts as inhibited. As usually defined, the inhibition is the relative decrease from the control value, in per cent. Regarding `CCOC(=O)C1=C(C)NC(=S)NC1c1ccc(NC(=O)Nc2c(F)cccc2C(F)(F)F)cc1` (configuration not stated), the MIC in assay [1] was found to be 40 µg/mL (≈ 80.6 µM); in assay [2] it was 55 µg/mL (≈ 111 µM); in assay [3], 60 µg/mL (≈ 121 µM); in assay [4] it was 30 µg/mL (≈ 60.4 µM); in assay [5], 60 µg/mL (≈ 121 µM); in assay [8], 55 µg/mL (≈ 111 µM). Also, the figures for the MIC in assay [9] and in assay [10] were 60 µg/mL (≈ 121 µM) and 40 µg/mL (≈ 80.6 µM), respectively. The inhibition at 10 µM in assay [6] was 0%; in assay [7], 27%.
`CCOC(=O)C1=C(C)NC(=S)NC1c1ccc(NC(=O)Nc2c(Cl)cccc2C(F)(F)F)cc1` (configuration not stated): the MIC in assay [1] amounted to 60 µg/mL (≈ 117 µM); in assay [2], 60 µg/mL (≈ 117 µM); in assay [3], 80 µg/mL (≈ 156 µM); in assay [4] it was 65 µg/mL (≈ 127 µM); in [5], 90 µg/mL (≈ 175 µM); in [8] it was 40 µg/mL (≈ 78 µM). For the same compound, the MIC in [9] came out at 55 µg/mL (≈ 107 µM); in assay [10], 85 µg/mL (≈ 166 µM). In addition, the values for the inhibition at 10 µM in assay [6] and in assay [7] were 0% and 39%, respectively.
As for `CCOC(=O)C1=C(C)NC(=S)NC1c1ccc(NC(=O)Nc2ccc(OC)cc2)cc1` (configuration not stated), the MIC is 15 µg/mL (≈ 34.1 µM) in [1]; 10 µg/mL (≈ 22.7 µM) in [2]; 30 µg/mL (≈ 68.1 µM) in assay [3]; 25 µg/mL (≈ 56.8 µM) in assay [4]; 45 µg/mL (≈ 102 µM) in assay [5]; 15 µg/mL (≈ 34.1 µM) in assay [8]. The MIC in assay [9] was found to be 30 µg/mL (≈ 68.1 µM); in assay [10] it was 20 µg/mL (≈ 45.4 µM). Also, the results for the inhibition at 10 µM in assay [6] and in assay [7] were 0% and 42%, respectively.
With `CCOC(=O)C1=C(C)NC(=S)NC1c1ccc(NC(=O)Nc2ccc(C(C)C)cc2)cc1` (configuration not stated), the MIC is 55 µg/mL (≈ 122 µM) in assay [1]; 90 µg/mL (≈ 199 µM) in assay [2]; 80 µg/mL (≈ 177 µM) in [3]; 90 µg/mL (≈ 199 µM) in assay [4]; 95 µg/mL (≈ 210 µM) in assay [5]; 85 µg/mL (≈ 188 µM) in assay [8]. Besides, the figures for the MIC in assay [9] and in assay [10] were 95 µg/mL (≈ 210 µM) and 85 µg/mL (≈ 188 µM), respectively. The inhibition at 10 µM came to 30% in [6] and 65% in [7].
Turning to `CCOC(=O)C1=C(C)NC(=S)NC1c1ccc(NC(=O)Nc2c(F)cccc2Cl)cc1` (configuration not stated), the MIC in assay [1] was found to be 85 µg/mL (≈ 184 µM); in assay [2] it was 40 µg/mL (≈ 86.4 µM); in assay [3], 80 µg/mL (≈ 173 µM); in assay [4], 60 µg/mL (≈ 130 µM); in [5], 85 µg/mL (≈ 184 µM); in [8] it was 65 µg/mL (≈ 140 µM). Also, the MIC in assay [9] turned out to be 90 µg/mL (≈ 194 µM); in assay [10] it was 55 µg/mL (≈ 119 µM). Besides, the inhibition at 10 µM is 0% in [6] and 36% in [7].
Regarding `CCOC(=O)C1=C(C)NC(=S)NC1c1ccc(NC(=O)Nc2ccccc2Oc2ccccc2)cc1` (configuration not stated), the MIC in assay [1] came to 35 µg/mL (≈ 69.6 µM); in assay [2], 40 µg/mL (≈ 79.6 µM); in [3] it was 30 µg/mL (≈ 59.7 µM); in [4] it was 60 µg/mL (≈ 119 µM); in [5], 40 µg/mL (≈ 79.6 µM); in [8] it was 40 µg/mL (≈ 79.6 µM). Moreover, the MIC came out at 30 µg/mL (≈ 59.7 µM) in assay [9] and 55 µg/mL (≈ 109 µM) in assay [10]. The inhibition at 10 µM in assay [6] came to 0%; in assay [7], 36%.
In the case of `CCOC(=O)C1=C(C)NC(=S)NC1c1ccc(NC(=O)Nc2ccccc2OC(F)(F)F)cc1` (configuration not stated), the MIC was 25 µg/mL (≈ 50.6 µM) in assay [1]; 15 µg/mL (≈ 30.3 µM) in assay [2]; 15 µg/mL (≈ 30.3 µM) in [3]; 20 µg/mL (≈ 40.4 µM) in assay [4]; 20 µg/mL (≈ 40.4 µM) in [5]; 30 µg/mL (≈ 60.7 µM) in [8]. The MIC in [9] came to 15 µg/mL (≈ 30.3 µM); in assay [10], 30 µg/mL (≈ 60.7 µM). Further, the inhibition at 10 µM in assay [6] was determined as 20%; in [7] it was 60%.
As for `CCOC(=O)C1=C(C)NC(=S)NC1c1ccc(NC(=O)Nc2ccccc2C(F)(F)F)cc1` (configuration not stated), the MIC is 15 µg/mL (≈ 31.3 µM) in [1]; 25 µg/mL (≈ 52.2 µM) in assay [2]; 30 µg/mL (≈ 62.7 µM) in assay [3]; 40 µg/mL (≈ 83.6 µM) in [4]; 30 µg/mL (≈ 62.7 µM) in [5]; 25 µg/mL (≈ 52.2 µM) in assay [8]. The MIC in assay [9] is 30 µg/mL (≈ 62.7 µM); in assay [10], 25 µg/mL (≈ 52.2 µM). For the same compound, the results for the inhibition at 10 µM in assay [6] and in [7] were 10% and 27%, respectively.
With `CCOC(=O)C1=C(C)NC(=S)NC1c1ccc(NC(=O)Nc2c(C)cccc2F)cc1` (configuration not stated), the MIC was 30 µg/mL (≈ 67.8 µM) in assay [1]; 50 µg/mL (≈ 113 µM) in [2]; 40 µg/mL (≈ 90.4 µM) in [3]; 35 µg/mL (≈ 79.1 µM) in assay [4]; 30 µg/mL (≈ 67.8 µM) in [5]; 60 µg/mL (≈ 136 µM) in assay [8]. Further, the MIC worked out at 40 µg/mL (≈ 90.4 µM) in assay [9] and 65 µg/mL (≈ 147 µM) in assay [10]. The inhibition at 10 µM in assay [6] turned out to be 0%; in assay [7] it was 6%.
In the case of `CCOC(=O)C1=C(C)NC(=S)NC1c1ccc(NC(=O)Nc2ccc(C(F)(F)F)cc2)cc1` (configuration not stated), the MIC in [1] is 10 µg/mL (≈ 20.9 µM); in assay [2], 15 µg/mL (≈ 31.3 µM); in assay [3] it was 10 µg/mL (≈ 20.9 µM); in [4] it was 15 µg/mL (≈ 31.3 µM); in assay [5], 30 µg/mL (≈ 62.7 µM); in assay [8], 20 µg/mL (≈ 41.8 µM). The minimal inhibitory concentration (MIC) in assay [9] and in [10] was 25 µg/mL (≈ 52.2 µM) in each case. Moreover, the inhibition at 10 µM in assay [6] was 3%; in assay [7], 55%.
As for `CCOC(=O)C1=C(C)NC(=S)NC1c1ccc(NC(=O)Nc2ccc(C(F)(F)F)cc2Cl)cc1` (configuration not stated), the MIC in assay [1] was 25 µg/mL (≈ 48.7 µM); in assay [2], 35 µg/mL (≈ 68.2 µM); in assay [3], 60 µg/mL (≈ 117 µM); in [4], 40 µg/mL (≈ 78 µM); in assay [5], 55 µg/mL (≈ 107 µM); in assay [8], 35 µg/mL (≈ 68.2 µM). The MIC in assay [9] and in assay [10] was 35 µg/mL (≈ 68.2 µM) throughout. Further, the inhibition at 10 µM is 16% in [6] and 73% in assay [7].
Take `CCOC(=O)C1=C(C)NC(=S)NC1c1ccc(NC(=O)Nc2cc(C(F)(F)F)ccc2Cl)cc1` (configuration not stated): the MIC in assay [1] is 80 µg/mL (≈ 156 µM); in assay [2] it was 60 µg/mL (≈ 117 µM); in [3] it was 85 µg/mL (≈ 166 µM); in assay [4], 80 µg/mL (≈ 156 µM); in [5], 90 µg/mL (≈ 175 µM); in [8], 55 µg/mL (≈ 107 µM). The results for the MIC in assay [9] and in assay [10] were 90 µg/mL (≈ 175 µM) and 85 µg/mL (≈ 166 µM), respectively. Besides, the inhibition at 10 µM was 68% in assay [6] and 92% in assay [7].
Regarding `Clc1ccc(COC(Cn2ccnc2)c2ccc(Cl)cc2Cl)c(Cl)c1` (configuration not stated) [MICONAZOLE], the MIC in assay [2] came out at 25 µg/mL (≈ 60.1 µM); in assay [3] it was 15 µg/mL (≈ 36 µM); in assay [4] it was 20 µg/mL (≈ 48.1 µM); in [9], 20 µg/mL (≈ 48.1 µM).
As to `CCOC(=O)C1=C(C)NC(=S)NC1c1ccc(N)cc1` (configuration not stated), the MIC in [1] turned out to be 40 µg/mL (≈ 137 µM); in [2] it was 55 µg/mL (≈ 189 µM); in assay [3], 45 µg/mL (≈ 154 µM); in assay [4], 40 µg/mL (≈ 137 µM); in assay [5] it was 60 µg/mL (≈ 206 µM); in assay [8], 40 µg/mL (≈ 137 µM). Further, the MIC worked out at 60 µg/mL (≈ 206 µM) in assay [9] and 55 µg/mL (≈ 189 µM) in [10]. Further, the inhibition at 10 µM was determined as 0% in assay [6] and 3% in [7].
Turning to `CCOC(=O)C1=C(C)NC(=S)NC1c1ccc(NC(=O)Nc2c(C)cccc2Cl)cc1` (configuration not stated), the MIC was 55 µg/mL (≈ 120 µM) in assay [1]; 40 µg/mL (≈ 87.2 µM) in assay [2]; 40 µg/mL (≈ 87.2 µM) in assay [3]; 55 µg/mL (≈ 120 µM) in assay [4]; 80 µg/mL (≈ 174 µM) in assay [5]; 40 µg/mL (≈ 87.2 µM) in assay [8]. For the same compound, the MIC in assay [9] was found to be 40 µg/mL (≈ 87.2 µM); in assay [10], 65 µg/mL (≈ 142 µM). The inhibition at 10 µM in assay [6] came to 2%; in assay [7], 11%.
On to `O=C(O)c1cn(C2CC2)c2cc(N3CCNCC3)c(F)cc2c1=O` [CIPROFLOXACIN], for which the MIC in [1] worked out at 15 µg/mL (≈ 45.3 µM); in assay [5], 25 µg/mL (≈ 75.4 µM); in assay [10], 25 µg/mL (≈ 75.4 µM).
